Laboratory results taken from BindingDB's records for doi:10.1021/jm00008a002 (Warner-Lambert, 1995).

Target: Endothelin-1 receptor (Oryctolagus cuniculus)
Test: Tested for antagonistic activity against Endothelin A receptor in the rabbit renal artery vascular smooth muscle cells.

IC50	Compound
0.31 µM	COc1ccc(CC2=C(c3ccc(Cl)c(Cl)c3)C(=O)OC2(O)c2ccc(OC)cc2)cc1 (configuration not stated) [3-(3,4-Dichloro-phenyl)-5-hydroxy-4-(4-methoxy-benzyl)-5-(4-methoxy-phenyl)-5H-furan-2-one]
0.006 µM	COc1ccc(C2(O)OC(=O)C(c3ccc4c(c3)OCO4)=C2Cc2ccc(OC)c(C)c2)cc1 (configuration not stated) [3-Benzo[1,3]dioxol-5-yl-5-hydroxy-4-(4-methoxy-3-methyl-benzyl)-5-(4-methoxy-phenyl)-5H-furan-2-one]
